pIC50: −log10 of the molar value.

Assay [1] concerns the target T1, mouse Kv1.3 (Mus musculus, UniProt P16390).
T1 construct: gene Kcna3; mouse Kv1.3 stably expressed in L929 cells
In words: whole-cell patch clamp. It is filed as cell-based.

Assay [2] has as its target T2, Kv1.3 potassium channel (Homo sapiens, UniProt P22001).
T2 construct: gene KCNA3; His-Kv1.3 expressed in 293T cells and purified (gel shift); endogenous Kv1.3 in Jurkat T cells (patch clamp)
In words: IC50 from whole-cell patch clamp in Jurkat T cells. It is filed as cell-based. Background: The patch-clamp technique gives a direct electrical read-out from membranes.

T2 sequence (P22001 whole entry): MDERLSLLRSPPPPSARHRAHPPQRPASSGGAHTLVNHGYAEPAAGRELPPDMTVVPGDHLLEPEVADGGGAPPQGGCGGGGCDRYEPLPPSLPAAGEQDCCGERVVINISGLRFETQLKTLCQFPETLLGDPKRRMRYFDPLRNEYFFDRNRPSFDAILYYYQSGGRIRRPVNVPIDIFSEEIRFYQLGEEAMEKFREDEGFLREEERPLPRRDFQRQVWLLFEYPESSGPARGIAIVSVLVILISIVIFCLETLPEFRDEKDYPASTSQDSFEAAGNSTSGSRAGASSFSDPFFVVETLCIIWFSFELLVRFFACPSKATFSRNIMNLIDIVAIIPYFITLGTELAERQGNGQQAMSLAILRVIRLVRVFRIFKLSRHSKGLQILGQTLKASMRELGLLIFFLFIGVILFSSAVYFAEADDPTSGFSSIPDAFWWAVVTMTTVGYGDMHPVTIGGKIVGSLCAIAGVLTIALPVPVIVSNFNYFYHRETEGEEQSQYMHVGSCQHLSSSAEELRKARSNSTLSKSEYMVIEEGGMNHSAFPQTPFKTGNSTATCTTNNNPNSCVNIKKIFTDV
T1 sequence (P16390 whole entry): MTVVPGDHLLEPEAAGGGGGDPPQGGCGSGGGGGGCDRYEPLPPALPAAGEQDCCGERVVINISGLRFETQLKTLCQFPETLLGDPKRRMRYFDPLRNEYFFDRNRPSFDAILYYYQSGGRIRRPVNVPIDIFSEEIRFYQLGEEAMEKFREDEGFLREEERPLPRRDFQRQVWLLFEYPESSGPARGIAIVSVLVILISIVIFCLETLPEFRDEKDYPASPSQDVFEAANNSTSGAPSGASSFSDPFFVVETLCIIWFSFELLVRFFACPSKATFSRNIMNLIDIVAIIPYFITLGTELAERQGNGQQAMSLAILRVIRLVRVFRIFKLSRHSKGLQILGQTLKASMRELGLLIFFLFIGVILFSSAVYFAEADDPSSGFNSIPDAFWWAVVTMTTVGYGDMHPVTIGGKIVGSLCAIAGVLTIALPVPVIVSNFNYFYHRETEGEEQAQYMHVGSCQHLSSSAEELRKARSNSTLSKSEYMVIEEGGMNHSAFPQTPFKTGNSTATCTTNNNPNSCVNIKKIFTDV

The term pIC50 denotes the negative decadic logarithm of the IC50, by convention in mol/L. For `CC(C)/N=c1\cc2n(-c3ccc(Cl)cc3)c3ccccc3nc-2cc1Nc1ccc(Cl)cc1` [CLF, clofazimine], the pIC50 in assay [1] is 6.33; in assay [2], 6.52.

For the origin of these results see article PMC2602975, “Clofazimine Inhibits Human Kv1.3 Potassium Channel by Perturbing Calcium Oscillation in T Lymphocytes” (PLoS ONE, 2008).
